This note sets out measurements from PMC11218202, “Targeting of 3D oral cancer spheroids by αVβ6 integrin using near-infrared peptide-conjugated IRDye 680” (Cancer Cell International, 2024).

In series [1] the test system is HSC-3 cells. Conditions: 24 h, 0.1–4 µM, serum-free medium, highest concentration 4 µM, p > 0.05. The method, then:
(§1) Cells were seeded into 96-well plates (100 µL, 4.10^4 cells/mL) for 5 days, then culture medium was replaced with 0.1–4 µM of IRDye-conjugates diluted in serum-free medium for 24 h at 37 °C. Afterwards, cells were washed, fixed with 70% ethanol for 10 min and further incubated with 0.2% crystal violet in 20% ethanol for 15 min. After several washes, crystal violet was solubilized using 0.1% acetic acid and 50% ethanol and optical density was recorded at 540 nm with Multiskan microplate readers (Ascent, Labsystems). Cell viability was calculated by normalizing to that of the control condition.

The subject of the next series is MRC-5 cells. Conditions: 24 h, 0.1–4 µM, serum-free medium, highest concentration 4 µM, p > 0.05. The method, then:
as §1

Series [2] relates to HSC-3 cells. The series can be described thus: Internalization studies in HSC-3 monolayers (4 °C vs 37 °C, endocytosis inhibitors), flow cytometry. It counts as cell-based, human. Conditions: for reduction of cellular uptake of IRDye-A20 by endocytosis inhibitor: HSC-3 cells pre-incubated 30 min with Genistein 400 µM, Chlorpromazin or EIPA 100 µM, then IRDye-A20 500 nM for 3 h, n = 3–4. On the technique in general: Flow cytometry measures light scatter and fluorescence of single cells or particles in a stream.

Another series has as its system H10 HSC-3 spheroids. In words: Accumulation in homotypic H10 (HSC-3) spheroids, flow cytometry. It counts as cell-based, human.

“CGGGSGGGSLRDQTGLKNPVQLARVAV [IRDye-Scr, IRDye 680 conjugated to a scramble version of the A20 peptide, control for non-specific delivery]”: the “loss of viability (crystal violet)” value in the series with HSC-3 cells [1] and with MRC-5 cells was “Loss of viability was not detected” each time. Further, in the series with HSC-3 cells [2] (HSC-3 monolayers, 3 h, 1-500 nM, n = 4), the “inhibition of internalization at 4 °C versus 37 °C” value was “significant inhibition of internalization at 4 °C was observed only at the highest concentrations”. Moreover, the “MFI, fold less compared to IRDye-A20” value in the series on H10 HSC-3 spheroids (100 nM, 24 h) was 20 fold. Besides, the “percentage of labeled cells” value in the series on H10 HSC-3 spheroids (3 h, maximum over 1-250 nM, n = 4–5) is listed as 3%; with H10 HSC-3 spheroids (6 h, maximum over 1-250 nM, n = 4–5), 7%; with H10 HSC-3 spheroids (24 h, 50 nM), at most 3%; in the series with H10 HSC-3 spheroids (24 h, 100 nM), 11%; in the series on H10 HSC-3 spheroids (24 h, 250 nM), 45%.

In the case of `CN(C)CCCN1c2ccccc2Sc2ccc(Cl)cc21` [chlorpromazine, Chlorpromazin], the “reduction of cellular uptake of IRDye-A20 by endocytosis inhibitor” value (shortened to “reduction … by endocytosis inhibitor”) with HSC-3 cells [2] is recorded as “not affected”.

Regarding `CCN(c1nc(N)c(C(=O)N=C(N)N)nc1Cl)C(C)C` [EIPA, (5-(N-Ethyl-N-isopropyl)-Amiloride)], the “reduction … by endocytosis inhibitor” value with HSC-3 cells [2] is “not affected”.

For the molecule `O=c1c(-c2ccc(O)cc2)coc2cc(O)cc(O)c12` [genistein, Genistein], in the series on HSC-3 cells [2], the “reduction … by endocytosis inhibitor” value is recorded as 30%.
